The source of these data is patent US6500624B1, “Kainate-binding, human CNS receptors of the EAA3 family” (NPS Allelix Corp., priority 1992, dated 2002).

The test has as its target T1, human EAA3a receptor (Homo sapiens, UniProt P39086).
T1 construct: To provide the entire coding region of the receptor; expressed in transfected cells; host or cells: COS-1 (monkey, ATCC CRL 1650), transient transfection with pcDNAIA/humEAA3a; membrane preparation
Description: NMDA binding to membranes of EAA3a-producing COS cells. The following applies: EAA3a-producing COS cell membranes.

T1 sequence (P39086 31-905 isoform P39086-2 limits assumed): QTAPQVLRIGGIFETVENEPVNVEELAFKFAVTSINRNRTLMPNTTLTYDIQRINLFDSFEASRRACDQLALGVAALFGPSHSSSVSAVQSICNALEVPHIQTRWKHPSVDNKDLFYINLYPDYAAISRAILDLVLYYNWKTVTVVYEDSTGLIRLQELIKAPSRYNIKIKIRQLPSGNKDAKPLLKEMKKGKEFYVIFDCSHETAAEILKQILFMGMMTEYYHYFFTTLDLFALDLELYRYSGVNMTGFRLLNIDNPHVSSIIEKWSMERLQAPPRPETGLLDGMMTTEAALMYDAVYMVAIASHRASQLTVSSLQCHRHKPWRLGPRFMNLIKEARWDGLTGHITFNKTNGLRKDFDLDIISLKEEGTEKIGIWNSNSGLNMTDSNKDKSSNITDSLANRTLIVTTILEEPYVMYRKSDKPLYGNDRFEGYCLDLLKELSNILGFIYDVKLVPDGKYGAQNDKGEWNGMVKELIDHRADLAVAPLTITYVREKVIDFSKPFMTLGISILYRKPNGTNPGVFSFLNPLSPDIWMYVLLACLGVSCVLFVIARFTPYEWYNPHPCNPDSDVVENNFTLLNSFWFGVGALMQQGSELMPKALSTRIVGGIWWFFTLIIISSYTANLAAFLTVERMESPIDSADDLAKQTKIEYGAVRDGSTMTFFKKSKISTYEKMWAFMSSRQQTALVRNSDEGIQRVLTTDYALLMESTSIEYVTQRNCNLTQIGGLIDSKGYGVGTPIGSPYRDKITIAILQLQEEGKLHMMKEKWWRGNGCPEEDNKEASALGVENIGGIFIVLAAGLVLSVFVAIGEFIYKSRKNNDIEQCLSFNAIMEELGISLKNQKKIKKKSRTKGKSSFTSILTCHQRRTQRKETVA

As for `CN[C@H](CC(=O)O)C(=O)O` [NMDA, N-methyl-D-aspartate], the “binding of NMDA” value is “little or no demonstrable binding”.
